Experimental data from patent US10344026B2, “Compositions and methods of targeting mutant K-ras” (NANTBIO, INC., priority 2017, dated 2019).

Tests used:
Format in all cases: cell-based
wild type K-Ras = biological target: T1, wild type K-Ras (Homo sapiens, UniProt P01116); assay: G-LISA Ras activation, 293H cells transfected with Ras wild-type, EGF stimulated; details: compound 1 hour, then 100 ng/ml EGF 2 minutes
T1 construct: expressed in transfected cells; host or cells: 293H cells
Outline: (§1)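 293H cells were transfected with wild-type or mutant Ras plasmid (Lipofectamine 3000), then exposed next day to compounds at 3.125-25 μM for 1 hour. Wild-type transfectants received 100 ng/ml EGF for 2 minutes before ice-cold PBS wash, lysis on ice and G-LISA readout of active Ras.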

[1] = tested on: A375 (K-Ras wild type cell line); assay: Viability assay (CellTiterBlue, 72 hr) A375; details: Homo sapiens, A-375, GI50, CellTiterBlue
Outline: (§2)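 Each line was plated at 1000 cells per well and incubated for 72 hr with compound after an 18 hr settling period. CellTiterBlue fluorescence measured the result, and GI50 was fitted relative to DMSO and tamoxifen controls.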

[2] = tested on: phospho-ERK in Panc10.05 (G12D); assay: In-Cell Western phospho-ERK, Panc10.05; details: Homo sapiens, Panc1005, 1 h; Panc10.05, one hour treatment; read-out: In-Cell Western Panc10.05 (G12D) Erk (P)
Outline: (§3)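 EC50 values come from immunofluorescence quantitation of phosphorylated ERK or Akt in fixed cells exposed to compound for one hour at 0.5% DMSO. Maximal inhibition is defined by 1 uM BEZ235 for Akt and 1 uM MEK Inhibitor II for ERK.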

[3] = tested on: HCC827 (K-Ras wild type cell line); assay: Viability assay (CellTiterBlue, 72 hr) HCC827; details: Homo sapiens, GI50, CellTiterBlue, HCC827 K-Ras wild-type
Outline: as §2

[4] = tested on: Ishikawa (K-Ras wild type cell line); assay: Viability assay (CellTiterBlue, 72 hr) Ishikawa; details: Homo sapiens, GI50, CellTiterBlue, Ishikawa K-Ras wild-type
Outline: as §2

[5] = tested on: U87-MG (K-Ras wild type cell line); assay: Viability assay (CellTiterBlue, 72 hr) U87-MG; details: Homo sapiens, U-87 MG, GI50, CellTiterBlue, U87-MG K-Ras wild-type
Outline: as §2

[6] = tested on: phospho-Akt in Panc1 (G12D); assay: In-Cell Western phospho-Akt, Panc1; details: Homo sapiens, PANC-1, 1 h; Panc1, one hour treatment; read-out: In-Cell Western Panc1 (G12D) Akt (P)
Outline: as §3

[7] = tested on: phospho-Akt in HCC827 (Wild-type); assay: In-Cell Western phospho-Akt, HCC827; details: Homo sapiens, 1 h; HCC827, one hour treatment; read-out: In-Cell Western HCC827 (Wild-type) Akt (P)
Method: In-cell phosphorylation assays for Erk and Akt were performed on several of the compounds and exemplary results are shown in Table 3 below using HCC827 and A375 cell lines for wild type K-Ras and Panc1 and Panc10.05 cell lines for G12D K-Ras mutants. Results are expressed in μM and corresponding structures are shown in FIGS. 2A-2G and Examples 1-152, above.
Cells are seeded in complete medium into black sided, clear-bottom 384-well microplates at 3000 cells/[…]/well. Plates are returned to 37° C. CO2 incubator for 18 hr. Drug is made as 200× in DMSO and diluted into medium to 10×. To each well is added 4 ul 10× test article or controls, and plates are returned to the incubator. Final assay DMSO concentration is 0.5%. After one hour, cells are fixed in formaldehyde, rinsed & permeabilized with triton X-100, and blocked with BSA/Goat serum blocking solution. Primary phospho-Akt and phospho-ERK antibodies are added and plates are incubated overnight at 4° C. Plates are rinsed with Tween-20 wash buffer and secondary antibody (Goat anti-rabbit, Thermofisher) is added. After 2 hours, plates are rinsed in Tween-20 wash buffer, and then PBS. Plates are imaged on the Celigo (Nexcelom) and cellular fluorescence is quantitated. Full inhibition of phospho-Akt is achieved with 1 uM BEZ235 (Sellekchem), while full inhibition of phospho-ERK is achieved with 1 uM MEK Inhibitor II Calbiochem). EC50 values are calculated using Graphpad Prism.

[8] = tested on: phospho-ERK in A375 (Wild-type); assay: In-Cell Western phospho-ERK, A375; details: Homo sapiens, A-375, 1 h; A375, one hour treatment; read-out: In-Cell Western A375 (Wild-type) Erk (P)
Outline: as §3

[9] = tested on: phospho-ERK in Panc1 (G12D); assay: In-Cell Western phospho-ERK, Panc1; details: Homo sapiens, PANC-1, 1 h; Panc1, one hour treatment; read-out: In-Cell Western Panc1 (G12D) Erk (P)
Outline: as §3

[10] = tested on: phospho-ERK in HCC827 (Wild-type); assay: In-Cell Western phospho-ERK, HCC827; details: Homo sapiens, 1 h; HCC827, one hour treatment; read-out: In-Cell Western HCC827 (Wild-type) Erk (P)
Outline: as §3

[11] = tested on: phospho-Akt in Panc10.05 (G12D); assay: In-Cell Western phospho-Akt, Panc10.05; details: Homo sapiens, Panc1005, 1 h; Panc10.05, one hour treatment; read-out: In-Cell Western Panc10.05 (G12D) Akt (P)
Outline: as §3

HCT116-G31D = assay: Viability assay (CellTiterBlue, 72 hr) HCT116; details: Homo sapiens, HCT-116, GI50, CellTiterBlue, HCT116 K-Ras G13D, read-out: 72 hr Cell Viability HCT116 (G13D)
Outline: as §2

[12] = tested on: phospho-Akt in A375 (Wild-type); assay: In-Cell Western phospho-Akt, A375; details: Homo sapiens, A-375, 1 h; A375, one hour treatment; read-out: In-Cell Western A375 (Wild-type) Akt (P)
Outline: as §3

Panc10.05-G12D = assay: Viability assay (CellTiterBlue, 72 hr) Panc10.05; details: Homo sapiens, Panc1005, GI50, CellTiterBlue, Panc10.05 K-Ras G12D, read-out: 72 hr Cell Viability Panc10.05 (G12D)
Outline: as §2

Panc1-G12D = assay: Viability assay (CellTiterBlue, 72 hr) Panc1; details: Homo sapiens, PANC-1, GI50, CellTiterBlue, Panc1 K-Ras G12D, read-out: 72 hr Cell Viability Panc1 (G12D)
Outline: as §2

K-Ras G12D = biological target: T2, K-Ras G12D (Homo sapiens, UniProt P01116, G12D); assay: G-LISA Ras activation, 293H cells transfected with G12D mutant; details: compound 1 hour
T2 construct: expressed in transfected cells; host or cells: 293H cells
T2 sequence (P01116 whole entry G12D): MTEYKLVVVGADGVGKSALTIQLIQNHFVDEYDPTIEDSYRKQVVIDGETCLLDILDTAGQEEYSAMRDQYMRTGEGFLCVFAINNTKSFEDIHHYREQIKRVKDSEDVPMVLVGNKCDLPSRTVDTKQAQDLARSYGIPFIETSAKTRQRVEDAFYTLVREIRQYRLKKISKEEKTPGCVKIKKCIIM
Outline: as §1

T1 sequence (P01116 whole entry): as the sequence (P01116 whole entry G12D) above, with D12G counted along it

SMILES | IC50 (wild type K-Ras) | IC50 [1] | EC50 [2] | IC50 [3] | IC50 [4] | IC50 [5] | EC50 [6] | EC50 [7] | EC50 [8] | EC50 [9] | EC50 [10] | EC50 [11] | IC50 (HCT116-G31D) | EC50 [12] | IC50 (Panc10.05-G12D) | IC50 (Panc1-G12D) | IC50 (K-Ras G12D)
Cc1nn(Cc2ccccc2)c(C)c1C(=O)Nc1nc(-c2ccc3c(c2)CCC(=O)N3)cs1 [Compound 56, 1-benzyl-3,5-dimethyl-N-(4-(2-oxo-1,2,3,4-tetrahydroquinolin-6-yl)thiazol-2-yl)-1H-pyrazole-4-carboxamide] | 19.2 µM | 4 µM | 3 µM | 7 µM | 7 µM | 12 µM | 27 µM | > 25 µM | 16 µM | 3 µM | 9 µM | 21 µM | 6 µM | > 25 µM | 7 µM | 9 µM | 6.6 µM
Cc1nc(C)c(C(=O)Nc2nc(-c3ccc4c(c3)CCC(=O)N4CCn3cncn3)cs2)o1 [Compound 108, N-(4-(1-(2-(1H-1,2,4-triazol-1-yl)ethyl)-2-oxo-1,2,3,4-tetrahydroquinolin-6-yl)thiazol-2-yl)-2,4-dimethyloxazole-5-carboxamide] | – | > 25 µM | 21 µM | > 25 µM | > 25 µM | > 25 µM | > 25 µM | > 25 µM | > 25 µM | > 25 µM | > 25 µM | > 25 µM | > 25 µM | > 25 µM | > 25 µM | > 25 µM | > 25 µM
CCc1cc(C(=O)Nc2nc(-c3ccc4c(c3)CCC(=O)N4)cs2)n(C)n1 [Compound 24, 3-ethyl-1-methyl-N-(4-(2-oxo-1,2,3,4-tetrahydroquinolin-6-yl)thiazol-2-yl)-1H-pyrazole-5-carboxamide] | 7.6 µM | > 25 µM | > 25 µM | > 25 µM | > 25 µM | > 25 µM | > 25 µM | > 25 µM | > 25 µM | > 25 µM | > 25 µM | 13 µM | > 25 µM | – | 2.76 µM | 0.672 µM | 9.9 µM
Cc1nc(C2CC2)oc1C(=O)Nc1nc(-c2ccc3c(c2)CCC(=O)N3Cc2cccnc2)cs1 [Compound 72, 2-cyclopropyl-4-methyl-N-(4-(2-oxo-1-(pyridin-3-ylmethyl)-1,2,3,4-tetrahydroquinolin-6-yl)thiazol-2-yl)oxazole-5-carboxamide] | 8 µM | – | 5 µM | > 25 µM | 2 µM | – | 2 µM | 19 µM | – | 3 µM | 14 µM | 19 µM | > 25 µM | – | 2 µM | 13 µM | 8 µM
Cc1nc(C)c(C(=O)Nc2nc(-c3ccc4c(c3)CCC(=O)N4Cc3cccnc3)cs2)o1 [Compound 70, 2,4-dimethyl-N-(4-(2-oxo-1-(pyridin-3-ylmethyl)-1,2,3,4-tetrahydroquinolin-6-yl)thiazol-2-yl)oxazole-5-carboxamide] | > 25 µM | – | 25 µM | > 25 µM | 24 µM | – | 22 µM | 19 µM | – | 10 µM | 22 µM | > 25 µM | > 25 µM | – | 7 µM | 20 µM | 8.3 µM
Cc1nc(C)c(C(=O)Nc2nc(-c3ccc4c(c3)CCC(=O)N4CC3CCOC3)cs2)o1 (centres unmarked) [Compound 67, 2,4-dimethyl-N-(4-(2-oxo-1-((tetrahydrofuran-3-yl)methyl)-1,2,3,4-tetrahydroquinolin-6-yl)thiazol-2-yl)oxazole-5-carboxamide] | > 25 µM | – | 6 µM | 3 µM | 2 µM | – | – | 10 µM | – | 3 µM | 4 µM | 23 µM | 2 µM | – | 2 µM | 4 µM | 8 µM
Cc1nc(C)c(C(=O)Nc2nc(-c3ccc4c(c3)CCC(=O)N4CC3CC3)cs2)o1 [Compound 68, N-(4-(1-(cyclopropylmethyl)-2-oxo-1,2,3,4-tetrahydroquinolin-6-yl)thiazol-2-yl)-2,4-dimethyloxazole-5-carboxamide] | 16.7 µM | – | 7 µM | 5 µM | 3 µM | – | 4 µM | 13 µM | – | 5 µM | 6 µM | 23 µM | 5 µM | – | 3 µM | 8 µM | 10.3 µM
COCCN1C(=O)CCc2cc(-c3csc(NC(=O)c4c(C)nn(C(C)C)c4C)n3)ccc21 [Compound 118, 1-isopropyl-N-(4-(1-(2-methoxyethyl)-2-oxo-1,2,3,4-tetrahydroquinolin-6-yl)thiazol-2-yl)-3,5-dimethyl-1H-pyrazole-4-carboxamide] | – | 9 µM | 0.969 µM | 2 µM | 4 µM | 8 µM | 26 µM | > 25 µM | 10 µM | 6 µM | 1.2 µM | 2 µM | 18 µM | 23 µM | 0.854 µM | 2 µM | 4.3 µM
Cc1nc(C)c(C(=O)Nc2nc(-c3ccc4c(c3)CCC(=O)N4Cc3nnn[nH]3)cs2)o1 [Compound 109, N-(4-(1-((1H-tetrazol-5-yl)methyl)-2-oxo-1,2,3,4-tetrahydroquinolin-6-yl)thiazol-2-yl)-2,4-dimethyloxazole-5-carboxamide] | – | > 25 µM | > 25 µM | > 25 µM | > 25 µM | > 25 µM | > 25 µM | > 25 µM | > 25 µM | > 25 µM | > 25 µM | > 25 µM | > 25 µM | > 25 µM | > 25 µM | > 25 µM | –
